Data as given in US10858312B1, “Gossypol isocyanate ester compounds with antileukemic activities and a method of preparing the same” (SHAANXI PANLONG PHARMACEUTICAL GROUP LIMITED BY SHARE LTD., priority 2020, dated 2020).

Legend:
Type in all cases: cell-based
[1] = system: HL-60 (human promyelocytic leukemia cells); assay: CCK8 growth inhibition of leukemia cells, HL-60; conditions: for IC50: Homo sapiens, HL-60, 48 h, read-out: IC50 HL-60
Experimental: (§1) Example 6: CCK8 Method to Detect the Growth Inhibitory Effect of Gossypol Isocyanate Ester Compounds on Three Kinds of Leukemia Cells
(§2) Cell lines: Jurkat (acute T-cell leukemia), HL-60 (human promyelocytic leukemia cells), K-562 (chronic myeloid leukemia), provided by the Affiliated Hospital of Guangdong Medical College. The cells were cultured in RPMI1640 medium containing 10% fetal bovine serum, penicillin […], streptomycin 100 mg/L, 37° C., 5% CO2, saturated humidity incubator, and the logarithmic growth phase cells were tested.
(§3) Test method: The logarithmic growth phase leukemia cell lines were taken, counted, and inoculated on a 96-well culture plate at a density of 1×10^5/mL, 100 μL per well. After 24 hours of cultivation, 100 μL of double-concentration medium containing different concentrations of compounds was added to each well. The medium containing the highest concentration of DMSO was used as the solvent control. After 48 hours of drug action, 20 μL of CCK8 color developing solution was added to each well, and the color was developed at 37° C. The OD450 was measured with a microplate reader until the absorbance was about 1.5. The inhibition rate was calculated using the formula: Inhibition Rate (%)=(1−Absorbance Value of Administration Group/Absorbance Value of Control Group)×100%
(§4) The half-inhibitory concentration of cells (IC50) was calculated by the Kou's method.

[2] = system: Jurkat (acute T-cell leukemia); assay: CCK8 growth inhibition of leukemia cells, Jurkat; conditions: for IC50: Homo sapiens, Jurkat, 48 h, read-out: IC50 Jurkat
Experimental: as §1, §2, §3, §4

[3] = system: K-562 (chronic myeloid leukemia); assay: CCK8 growth inhibition of leukemia cells, K-562; conditions: for IC50: Homo sapiens, K562, 48 h, read-out: IC50 K562
Experimental: as §1, §2, §3, §4

CCNC(=O)O/C=C1\C(=O)C(O)=C(C(C)C)c2cc(C)c(-c3c(C)cc4c(c3O)/C(=C/OC(=O)NCC)C(=O)C(O)=C4C(C)C)c(O)c21 [Compound 2, (1Z,1′Z)-(1,1′,6,6′-tetrahydroxy-5,5′-diisopropyl-3,3′-dimethyl-7,7′-dioxo-[2,2′-binaphtha-lene]-8,8′(7H,7′H)-diylidene)bis(methanylylidene) bis(ethylcarbamate)]
IC50 [1]: 92.2 µM | IC50 [2]: 68.2 µM | IC50 [3]: 49.1 µM

Cc1cc2c(c(O)c1-c1c(C)cc3c(c1O)/C(=C/OC(=O)Nc1cccc4c(N)cccc14)C(=O)C(O)=C3C(C)C)/C(=C/OC(=O)Nc1cccc3c(N)cccc13)C(=O)C(O)=C2C(C)C [Compound 4, ((8Z,8′Z)-1,1′,6,6′-tetrahydroxy-5,5′-diisopropyl-3,3′-dimethyl-7,7′-dioxo-[2,2′-binaphthalene]-8,8′(7H,7′H)-diylidene)bis(methaneylylidene) bis((5-aminonaphthalen-1-yl)carbamate)]
IC50 [1]: 15.9 µM | IC50 [2]: 21.7 µM | IC50 [3]: 21.7 µM

Cc1cc(-c2ccc(NC(=O)O/C=C3\C(=O)C(O)=C(C(C)C)c4cc(C)c(-c5c(C)cc6c(c5O)/C(=C/OC(=O)Nc5ccc(-c7ccc(N)c(C)c7)cc5C)C(=O)C(O)=C6C(C)C)c(O)c43)c(C)c2)ccc1N [Compound 5, ((8Z,8′)-1,1′,6,6′-tetrahydroxy-5,5′-diisopropyl-3,3′-dimethyl-7,7′-dioxo-[2,2′-binaphthalene]-8,8′(7H,7′H)-diylidene)bis(methaneylylidene) bis((4′-amino-3,3′-dimethyl-[1,1′-biphenyl]-4-yl)carbamate)]
IC50 [1]: 28.4 µM | IC50 [2]: 32.6 µM | IC50 [3]: 48.8 µM

Cc1cc2c(c(O)c1-c1c(C)cc3c(c1O)/C(=C/OC(=O)Nc1ccccc1)C(=O)C(O)=C3C(C)C)/C(=C/OC(=O)Nc1ccccc1)C(=O)C(O)=C2C(C)C [Compound 1, (1Z,1′Z)-(1,1′,6,6′-tetrahydroxy-5,5′-diisopropyl-3,3′-dimethyl-7,7′-dioxo-[2,2′-binaphthal-ene]-8,8′(7H,7′H)-diylidene)bis(methanylylidene) bis(phenylcarbamate)]
IC50 [1]: 31.7 µM | IC50 [2]: 18.3 µM | IC50 [3]: 37.1 µM

Cc1cc2c(c(O)c1-c1c(C)cc3c(c1O)/C(=C/OC(=O)Nc1ccc(N)cc1)C(=O)C(O)=C3C(C)C)/C(=C/OC(=O)Nc1ccc(N)cc1)C(=O)C(O)=C2C(C)C [Compound 3, ((8Z,8′Z)-1,1′,6,6′-tetrahydroxy-5,5′-diisopropyl-3,3′-dimethyl-7,7′-dioxo-[2,2′-binaphthalene]-8,8′(7H,7′H)-diylidene)bis(methaneylylidene) bis((4-aminophenyl)carbamate)]
anti-leukemia activity (in words) ([1]; HL-60 cells, CCK8): active | IC50 [1]: 26.6 µM | IC50 [2]: 13 µM | anti-leukemia activity (in words) ([2]; Jurkat cells, CCK8): active | IC50 [3]: 16.3 µM | anti-leukemia activity (in words) ([3]; K562 cells, CCK8): active
